The subject of data set [1] is Class A scavenger receptor (SR-A). Description: Scavenger receptor expression by flow cytometry, SR-A. In kind it is cell-based, murine. Particulars: cultured macrophages, compound in the absence of LDL. How it is done:
Cell surface CD36 and SR-A were measured by flow cytometry using CD36 (BD Biosciences Pharmingen, San Diego, Calif.) and CD204 (Serotec, Oxford, UK) specific monoclonal antibodies. See Liao et al. (2000) Arterioscler. Thromb. Vasc. Biol. 20: 1968-75; Hu et al. (1996) Blood 87: 2020-28. Murine macrophage J774A.1 cells were serum-starved overnight in media with 0.5% BSA. Cells (1×10^6) treated with cholesterol ozonation products or cholesterol ozonation product complexed with LDL for specified times were then washed twice with PBS. […] Expression of either CD36 or SR-A was determined with CD36 (BD Biosciences Pharmingen, San Diego, Calif.) and CD204 (Serotec, Oxford, U.K.) specific monoclonal antibodies, respectively. After washing off the primary antibody, secondary antibodies were added, cells were washed again, then analyzed on a FACS calibur 2 (Becton Dickinson, Sparks, Md.) flow cytometer and analyzed by CellQuant software. Results were expressed as mean fluorescence intensity±standard error of the mean (SEM) of at least duplicate determinations. Significance was determined using a student two-tail t test, with (*) indicating p<0.05, and (**) indicating p<0.01 versus the control.

A short description of data set [2]: Aldolization of ketoaldehyde 4a with amino acids (1H NMR). In kind it is physicochemical. The settings on record: DMSO-d6 (800 μl) and D2O (80 μl) without amino acid. How it is done:
Aldolization of ketoaldehyde 4a with amino acids. […] To this solution was added 1 equivalent of either: a) L-proline, b) glycine, c) L-lysine hydrochloride or d) L-lysine ethyl ester dihydrochloride. At time points the samples were analyzed by ^1H NMR.

A further data set has as its target LDL / apoB-100 (Homo sapiens, UniProt P04114). Description: Circular dichroism of LDL secondary structure. Particulars: LDL 100 μg/ml with 10 μM compound, PBS pH 7.4, 37° C., up to 48 h; normal LDL ~40±2%. For orientation: CD spectra are sensitive to the conformation of chiral molecules.
In another data set the test system is CD36. Description: Scavenger receptor expression by flow cytometry, CD36. In kind it is cell-based, murine. How it is done: Cell surface CD36 and SR-A were measured by flow cytometry using CD36 (BD Biosciences Pharmingen, San Diego, Calif.) and CD204 (Serotec, Oxford, UK) specific monoclonal antibodies. See Liao et al. (2000) Arterioscler. Thromb. Vasc. Biol. 20: 1968-75; Hu et al. (1996) Blood 87: 2020-28. Murine macrophage J774A.1 cells were serum-starved overnight in media with 0.5% BSA. Cells (1×10^6) treated with cholesterol ozonation products or cholesterol ozonation product complexed with LDL for specified times were then washed twice with PBS. After harvesting the cells by scraping, they were fixed with 6% paraformaldehyde for 20 min; Cells were then resuspended in PBS containing 2% heat-inactivated FCS, 0.05% NaN3 and appropriate primary antibody, antibody conjugate or isotype control (1:100 dilution) and incubated on ice for 30 min. Expression of either CD36 or SR-A was determined with CD36 (BD Biosciences Pharmingen, San Diego, Calif.) and CD204 (Serotec, Oxford, U.K.) specific monoclonal antibodies, respectively. After washing off the primary antibody, secondary antibodies were added, cells were washed again, then analyzed on a FACS calibur 2 (Becton Dickinson, Sparks, Md.) flow cytometer and analyzed by CellQuant software. Results were expressed as mean fluorescence intensity±standard error of the mean (SEM) of at least duplicate determinations. Significance was determined using a student two-tail t test, with (*) indicating p<0.05, and (**) indicating p<0.01 versus the control.
On the technique in general: Flow cytometry measures light scatter and fluorescence of single cells or particles in a stream.

The next data set relates to THP-1 monocytes. Nature of the data set: Monocyte morphology changes (differentiation into macrophages). It is filed as cell-based, human. Particulars: 12.5 or 25 μM, up to 7 days. How it is done: THP-1 monocytes in suspension were plated in 8-well chambered slides. […] Media containing appropriate treatment compounds was replaced after 4 days. After 4 days treatment, morphologic changes of the adherent cells were assessed by phase-contrast microscopy and photographed using an Olympus Microfire digital camera.

This is an account of results in patent US20100003711A1, “Methods to identify therapeutic agents” (THE SCRIPPS RESEARCH INSTITUTE, priority 2005, published 2010).

Molecules are shown by their SMILES.

Sequence of LDL / apoB-100 (P04114 28-4563): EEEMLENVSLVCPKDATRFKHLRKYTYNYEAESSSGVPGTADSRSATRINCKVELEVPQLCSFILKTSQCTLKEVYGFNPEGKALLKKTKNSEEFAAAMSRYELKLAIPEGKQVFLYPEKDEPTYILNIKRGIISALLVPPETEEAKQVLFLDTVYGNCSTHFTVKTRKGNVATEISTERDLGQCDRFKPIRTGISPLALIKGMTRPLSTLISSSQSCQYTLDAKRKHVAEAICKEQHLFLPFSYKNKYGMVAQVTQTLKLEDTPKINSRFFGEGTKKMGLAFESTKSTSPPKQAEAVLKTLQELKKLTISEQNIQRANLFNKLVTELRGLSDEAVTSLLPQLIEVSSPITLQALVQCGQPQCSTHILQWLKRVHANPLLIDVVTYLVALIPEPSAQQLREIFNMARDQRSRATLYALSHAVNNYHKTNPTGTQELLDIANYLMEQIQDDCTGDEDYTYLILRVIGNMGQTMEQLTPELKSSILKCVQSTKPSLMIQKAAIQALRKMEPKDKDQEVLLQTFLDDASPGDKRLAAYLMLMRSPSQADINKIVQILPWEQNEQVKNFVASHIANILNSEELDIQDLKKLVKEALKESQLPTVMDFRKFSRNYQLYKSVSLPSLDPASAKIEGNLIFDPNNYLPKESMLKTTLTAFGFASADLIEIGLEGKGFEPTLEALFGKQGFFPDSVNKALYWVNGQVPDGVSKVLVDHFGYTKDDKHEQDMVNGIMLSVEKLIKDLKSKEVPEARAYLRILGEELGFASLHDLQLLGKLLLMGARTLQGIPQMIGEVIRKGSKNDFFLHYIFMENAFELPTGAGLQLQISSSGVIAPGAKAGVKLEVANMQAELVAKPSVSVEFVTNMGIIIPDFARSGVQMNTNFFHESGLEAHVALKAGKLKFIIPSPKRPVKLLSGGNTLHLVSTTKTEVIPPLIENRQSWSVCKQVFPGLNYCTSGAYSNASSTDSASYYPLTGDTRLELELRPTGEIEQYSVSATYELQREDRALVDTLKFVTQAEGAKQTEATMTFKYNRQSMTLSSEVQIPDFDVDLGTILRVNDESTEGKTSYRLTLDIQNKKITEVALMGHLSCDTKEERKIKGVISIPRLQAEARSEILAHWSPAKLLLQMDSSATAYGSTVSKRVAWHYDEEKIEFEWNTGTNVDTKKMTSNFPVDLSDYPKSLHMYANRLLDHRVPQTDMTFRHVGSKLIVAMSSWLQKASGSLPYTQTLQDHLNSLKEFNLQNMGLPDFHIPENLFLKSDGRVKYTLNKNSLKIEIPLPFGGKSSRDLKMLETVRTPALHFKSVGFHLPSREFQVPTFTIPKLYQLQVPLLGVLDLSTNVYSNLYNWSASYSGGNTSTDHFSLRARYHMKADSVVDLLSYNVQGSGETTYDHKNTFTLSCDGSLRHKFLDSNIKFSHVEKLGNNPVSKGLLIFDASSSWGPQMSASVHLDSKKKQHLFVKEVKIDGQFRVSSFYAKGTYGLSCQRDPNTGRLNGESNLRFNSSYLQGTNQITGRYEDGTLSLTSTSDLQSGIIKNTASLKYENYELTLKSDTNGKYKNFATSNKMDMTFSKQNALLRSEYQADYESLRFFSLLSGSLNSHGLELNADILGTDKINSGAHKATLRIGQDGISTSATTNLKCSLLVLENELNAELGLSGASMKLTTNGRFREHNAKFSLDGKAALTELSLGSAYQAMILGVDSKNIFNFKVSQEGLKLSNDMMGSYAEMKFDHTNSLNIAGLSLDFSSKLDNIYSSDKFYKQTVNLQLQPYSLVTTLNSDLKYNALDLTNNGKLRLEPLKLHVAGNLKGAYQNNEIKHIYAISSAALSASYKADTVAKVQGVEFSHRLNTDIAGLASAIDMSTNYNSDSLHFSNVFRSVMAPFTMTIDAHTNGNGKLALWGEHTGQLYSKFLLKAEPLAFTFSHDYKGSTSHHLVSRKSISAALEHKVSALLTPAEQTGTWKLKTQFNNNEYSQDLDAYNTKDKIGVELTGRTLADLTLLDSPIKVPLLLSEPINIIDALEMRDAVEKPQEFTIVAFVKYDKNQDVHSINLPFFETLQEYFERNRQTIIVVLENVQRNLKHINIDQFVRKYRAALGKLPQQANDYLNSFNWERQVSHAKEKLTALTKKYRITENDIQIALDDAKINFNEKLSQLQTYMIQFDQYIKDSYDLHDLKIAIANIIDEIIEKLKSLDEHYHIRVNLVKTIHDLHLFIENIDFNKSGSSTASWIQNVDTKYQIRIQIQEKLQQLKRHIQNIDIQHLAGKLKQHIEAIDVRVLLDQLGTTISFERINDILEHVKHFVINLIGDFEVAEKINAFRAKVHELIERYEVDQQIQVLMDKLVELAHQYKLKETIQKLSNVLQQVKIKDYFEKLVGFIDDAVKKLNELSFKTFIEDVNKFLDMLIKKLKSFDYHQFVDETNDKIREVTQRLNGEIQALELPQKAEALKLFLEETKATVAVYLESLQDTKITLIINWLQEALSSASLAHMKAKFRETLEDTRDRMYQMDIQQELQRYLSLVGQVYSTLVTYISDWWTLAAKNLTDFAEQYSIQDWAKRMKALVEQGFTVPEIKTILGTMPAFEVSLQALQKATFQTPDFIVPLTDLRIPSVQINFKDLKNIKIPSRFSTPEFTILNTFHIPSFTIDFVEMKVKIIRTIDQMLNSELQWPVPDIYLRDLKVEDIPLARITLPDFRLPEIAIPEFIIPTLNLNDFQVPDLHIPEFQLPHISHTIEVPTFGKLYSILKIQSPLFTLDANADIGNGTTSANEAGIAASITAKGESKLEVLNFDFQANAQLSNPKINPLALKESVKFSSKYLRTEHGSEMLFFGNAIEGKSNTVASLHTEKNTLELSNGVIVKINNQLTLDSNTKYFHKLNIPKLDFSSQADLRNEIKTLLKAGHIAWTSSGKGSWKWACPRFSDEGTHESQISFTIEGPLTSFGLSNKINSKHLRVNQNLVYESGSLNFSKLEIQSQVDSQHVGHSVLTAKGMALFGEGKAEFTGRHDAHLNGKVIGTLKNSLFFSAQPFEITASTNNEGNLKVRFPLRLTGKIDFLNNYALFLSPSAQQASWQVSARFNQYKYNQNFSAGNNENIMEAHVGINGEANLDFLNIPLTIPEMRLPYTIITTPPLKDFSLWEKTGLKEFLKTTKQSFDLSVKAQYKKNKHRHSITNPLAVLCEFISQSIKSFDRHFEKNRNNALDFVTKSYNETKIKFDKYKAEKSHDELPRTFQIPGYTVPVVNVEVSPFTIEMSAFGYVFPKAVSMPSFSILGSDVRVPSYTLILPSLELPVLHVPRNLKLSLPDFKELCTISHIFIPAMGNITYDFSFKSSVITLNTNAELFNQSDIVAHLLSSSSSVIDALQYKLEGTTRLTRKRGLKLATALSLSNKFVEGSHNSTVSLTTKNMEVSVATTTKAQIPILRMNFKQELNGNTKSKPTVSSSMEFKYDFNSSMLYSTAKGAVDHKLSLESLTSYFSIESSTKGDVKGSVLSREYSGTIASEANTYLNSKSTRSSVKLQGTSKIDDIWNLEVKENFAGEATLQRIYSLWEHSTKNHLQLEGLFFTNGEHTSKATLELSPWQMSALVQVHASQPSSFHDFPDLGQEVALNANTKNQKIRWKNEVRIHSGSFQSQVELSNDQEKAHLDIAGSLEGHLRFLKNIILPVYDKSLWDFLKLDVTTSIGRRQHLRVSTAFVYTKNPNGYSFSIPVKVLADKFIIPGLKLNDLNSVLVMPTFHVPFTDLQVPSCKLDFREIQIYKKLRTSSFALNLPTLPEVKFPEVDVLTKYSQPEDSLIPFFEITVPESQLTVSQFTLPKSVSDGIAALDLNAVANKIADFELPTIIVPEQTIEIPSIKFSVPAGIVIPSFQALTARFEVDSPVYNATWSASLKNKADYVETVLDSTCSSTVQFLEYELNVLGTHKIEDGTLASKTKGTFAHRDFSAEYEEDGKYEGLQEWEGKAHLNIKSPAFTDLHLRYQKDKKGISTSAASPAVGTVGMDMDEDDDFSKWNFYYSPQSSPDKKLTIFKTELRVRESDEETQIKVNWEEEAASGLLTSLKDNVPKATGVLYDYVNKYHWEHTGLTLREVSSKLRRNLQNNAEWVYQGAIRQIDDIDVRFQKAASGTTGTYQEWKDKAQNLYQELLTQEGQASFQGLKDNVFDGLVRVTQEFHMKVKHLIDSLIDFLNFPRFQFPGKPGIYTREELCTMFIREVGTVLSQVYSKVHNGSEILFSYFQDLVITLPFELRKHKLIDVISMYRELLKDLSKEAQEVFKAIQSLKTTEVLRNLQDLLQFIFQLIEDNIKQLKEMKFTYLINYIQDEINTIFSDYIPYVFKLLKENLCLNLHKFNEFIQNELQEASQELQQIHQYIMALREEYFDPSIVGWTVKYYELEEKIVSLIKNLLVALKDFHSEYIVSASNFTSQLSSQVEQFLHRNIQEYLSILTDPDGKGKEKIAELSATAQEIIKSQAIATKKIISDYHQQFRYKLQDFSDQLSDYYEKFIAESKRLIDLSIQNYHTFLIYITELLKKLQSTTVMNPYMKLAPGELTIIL
Protocol for LDL / apoB-100: Spectra were recorded in the peptidic range (200-260 nm). To increase the signal-to-noise ratio, multiple spectra (three) were averaged for each measurement. The deconvolution of the molar elipticity spectra for each measurement was performed using the CDPro suite of software (by Narasimha Sreerama from Colorado State University) on a Dell PC.

As for `CC(C)CCC[C@@H](C)[C@H]1CCC2C(CC=O)C([C@@]3(C)CC[C@H](O)CC3=O)CC[C@@]21C` (stereo partly drawn) [4a, 3βHydroxy-5-oxo-5,6-secocholestan-6-al], in data set [1], the SR-A expression entry is “did not increase expression of either receptor”. In data set [2], the “aldolization of 4a” value was “no aldolization”. In addition, the “a helical structure of LDL” value at LDL / apoB-100 is given as roughly 23±5%. The CD36 expression entry in the data set on CD36 (J774A.1, 25 μM compound complexed with LDL (100 μg/ml protein), 6 h) is “little or no effect”; in the data set with CD36 (cultured macrophages, compound in the absence of LDL) it was “did not increase expression of either receptor”. For the same compound, the “THP-1 monocyte differentiation into macrophages (adherence, morphology)” value in the data set with THP-1 monocytes is listed as “neither became adherent nor developed the aforementioned morphological changes”.
